Assay [1] concerns the target HLA-B5801 (Homo sapiens, UniProt P01889, A329T/C349S/D201E/D98Y/E176V/E187L/E204Q/E69T/G107R/I218V/I90N/K202T/L105A/L119I/N104I/N87E/Q89R/Q94S/R106L/R155S/R180L/R86G/S101N/S121R/S35A/S48A/T118I/V127L/V306I/V36M/Y140S/Y91M). Put plainly: Competitive peptide binding assay, CIR-B5801. To be noted: HMy2.CIR-B5801 cells, reference Cy5-[…], class from inhibition at 5 and 15 μM, flow cytometry MFI; read-out: Binding affinity with HLA-B5801. As to the method:
(§1) Then, competitive peptide binding assays were performed.

Assay [2] deals with HLA-B4403 (Homo sapiens, UniProt P01889, A223V/A65T/A93T/A95T/D201E/D98Y/E176V/E187L/E204Q/E69K/G107R/H137Y/K202T/L105A/L119I/N104T/N87E/Q56L/Q94N/R106L/R155S/R180L/S101N/S121R/S35A/S48T/T118I/V36M/W191S/Y140D/Y91S). Put plainly: Competitive peptide binding assay, CIR-B4403. The following applies: HMy2.CIR-B4403 cells, reference Cy5-CYMEAVAL, class from inhibition at 5 and 15 μM, flow cytometry MFI; read-out: Binding affinity with HLA-B4403. The procedure: as §1

Assay [3] concerns the target HLA-B4601 (Homo sapiens, UniProt P01889, A329T/A93R/C349S/D201E/E100V/E187L/E204Q/E69M/E70A/I90K/K202T/N87E/R155S/R180W/S121R/S35A/S48A/V306I/V36M/Y140S). The assay can be described thus: Competitive peptide binding assay, CIR-B4601. The following applies: for IC50: HMy2.CIR-B4601 cells, reference Cy5-[…], class from inhibition at 5 and 15 μM, flow cytometry MFI, read-out: Binding affinity with HLA-B4601; for inhibition at 5 µM: read-out: Inhibition % of Cy5-reference peptide binding, CIR-B4601, 5μM peptide; for inhibition at 15 µM: read-out: Inhibition % of Cy5-reference peptide binding, CIR-B4601, 15μM peptide. As to the method:
as §1

In assay [4] the target is HLA-B1501 (Homo sapiens, UniProt P01889, A329T/A93T/A95T/C349S/D201E/D98Y/E187L/E204Q/E69M/E70A/K202T/N87E/Q94N/R155S/R180W/S121R/S35A/S48A/V306I/V36M/Y140S/Y91S). The assay can be described thus: Competitive peptide binding assay, CIR-B1501. To be noted: HMy2.CIR-B1501 cells, reference Cy5-[…], class from inhibition at 5 and 15 μM, flow cytometry MFI; read-out: Binding affinity with HLA-B1501. The procedure:
as §1

Assay [5] concerns the target T1, HLA-B0702 (Homo sapiens, UniProt P01889).
T1 construct: expressed in transfected cells; host or cells: HMy2.CIR
The assay can be described thus: Competitive peptide binding assay, CIR-B0702. The following applies: HMy2.CIR-B0702 cells, reference Cy5-[…], class from inhibition at 5 and 15 μM, flow cytometry MFI. The procedure:
as §1

For assay [6], the target named is HLA-B4001 (Homo sapiens, UniProt P01889, A65T/A93T/A95T/D138N/D98Y/E176V/E69K/N87E/Q56L/Q94N/R180L/S121R/S35A/S48T/T167S/V36M/W171L/Y33H/Y91S). The assay can be described thus: Competitive peptide binding assay, CIR-B4001. To be noted: HMy2.CIR-B4001 cells, reference Cy5-[…], class from inhibition at 5 and 15 μM, flow cytometry MFI; read-out: Binding affinity with HLA-B4001. The procedure: as §1

Assay [7] deals with HLA-B1302 (Homo sapiens, UniProt P01889, A65T/A93T/A95T/D138N/D201E/D98Y/E176V/E204Q/E69M/E70A/G107R/K202T/L105A/L119W/N104T/N87E/Q94N/R106L/R155S/R169L/R180L/S101N/S121T/S35A/S48T/V127L/V36M/Y140L/Y91S). Put plainly: Competitive peptide binding assay, CIR-B1302. The following applies: HMy2.CIR-B1302 cells, reference Cy5-MMWYWGPSL, class from inhibition at 5 and 15 μM, flow cytometry MFI; read-out: Binding affinity with HLA-B1302. As to the method: as §1

Assay [8] has as its target HLA-B3501 (Homo sapiens, UniProt P01889, A329T/A93T/A95T/C349S/D201E/D98Y/E176V/E187L/E204Q/E69T/I218V/K202T/L119I/Q94N/R155S/R180L/S121R/S35A/S48A/T118I/V127L/V306I/V36M/Y140S/Y91F). Put plainly: Competitive peptide binding assay, CIR-B3501. To be noted: HMy2.CIR-B3501 cells, reference Cy5-[…], class from inhibition at 5 and 15 μM, flow cytometry MFI; read-out: Binding affinity with HLA-B3501. The procedure: as §1

Assay [9] addresses HLA-B5101 (Homo sapiens, UniProt P01889, A329T/A93T/A95T/C349S/D138N/D201E/D98Y/E187L/E204Q/E69T/G107R/I218V/K202T/L105A/L119W/N104I/Q94N/R106L/R155S/R180L/S101N/S121T/S35A/S48A/V306I/V36M/Y195H/Y91F). The assay can be described thus: Competitive peptide binding assay, CIR-B5101. To be noted: HMy2.CIR-B5101 cells, reference Cy5-[…], class from inhibition at 5 and 15 μM, flow cytometry MFI; read-out: Binding affinity with HLA-B5101. The procedure: as §1

Assay [10] addresses HLA-B1502 (Homo sapiens, UniProt P01889, A329T/A93T/A95T/C349S/D201E/D98Y/E187L/E204Q/E69M/E70A/H137Y/K202T/L119I/Q94N/R155S/R180L/S121R/S35A/S48A/T118I/V306I/V36M/Y140S/Y91S). The assay can be described thus: Competitive peptide binding assay, CIR-B1502. To be noted: HMy2.CIR-B1502 cells, reference Cy5-[…], class from inhibition at 5 and 15 μM, flow cytometry MFI; read-out: Binding affinity with HLA-B1502. The procedure: as §1

The target of assay [11] is HLA-B1301 (Homo sapiens, UniProt P01889, A65T/A93T/A95T/D138N/D201E/D98Y/E176V/E204Q/E69M/E70A/G107R/K202T/L105A/L119I/N104T/N87E/Q94N/R106L/R155S/R169L/R180L/S101N/S121R/S35A/S48T/T118I/V127L/V36M/Y140L/Y91S). The assay can be described thus: Competitive peptide binding assay, CIR-B1301. To be noted: HMy2.CIR-B1301 cells, reference Cy5-[…], class from inhibition at 5 and 15 μM, flow cytometry MFI; read-out: Binding affinity with HLA-B1301. As to the method:
as §1

Data on eight compounds can be found in paper PMC12133982, “Predominant T-cell epitopes of SARS-CoV-2 restricted by multiple prevalent HLA-B and HLA-C allotypes in Northeast Asia” (Frontiers in Immunology, 2025).

SMILES strings stand for the structures. Peptide text beside a SMILES is read from it.

As for `CC(C)[C@H](NC(=O)[C@H](CC(N)=O)NC(=O)[C@H](Cc1ccc(O)cc1)NC(=O)[C@H](C)NC(=O)[C@@H](N)CCCCN)C(=O)N[C@H](C(=O)N[C@@H](CCC(N)=O)C(=O)N[C@@H](C)C(=O)N[C@@H](Cc1ccccc1)C(=O)O)[C@@H](C)O` [Epitope Y62] (H-KAYNVTQAF-OH), the IC50 in [1] is 5 to 15 µM; in assay [2] it was 5 to 15 µM; in [3] it was 5 to 15 µM; in [4], 5 to 15 µM; in [5], more than 15 µM; in assay [6], more than 15 µM. Further, the IC50 in assay [7] was more than 15 µM; in assay [8], less than 5 µM.

On to `CC(C)C[C@H](NC(=O)[C@@H](NC(=O)[C@@H](NC(=O)CNC(=O)[C@H](CCC(N)=O)NC(=O)[C@@H]1CCCN1C(=O)[C@H](CC(C)C)NC(=O)[C@H](CCC(N)=O)NC(=O)[C@@H](N)CC(C)C)[C@@H](C)O)[C@@H](C)O)C(=O)O` [Epitope Y61] (H-LQLPQGTTL-OH; N-terminus and C-terminus assumed), for which the IC50 in [1] was 5 to 15 µM; in assay [9], 5 to 15 µM; in [3] it was more than 15 µM; in assay [8], less than 5 µM. Also, the inhibition at 5 µM in assay [3] came out at 20%. For the same compound, the inhibition at 15 µM in assay [3] worked out at 33.6%.

For `CSCC[C@H](NC(=O)[C@H](CCSC)NC(=O)[C@H](CO)NC(=O)[C@H](Cc1ccccc1)NC(=O)[C@H](Cc1c[nH]cn1)NC(=O)[C@H](CCCCN)NC(=O)[C@H](CCCNC(=N)N)NC(=O)[C@H](CC(C)C)NC(=O)[C@@H](N)Cc1ccc(O)cc1)C(=O)O` [Epitope Y28] (H-YLRKHFSMM-OH; N-terminus and C-terminus assumed), the IC50 in assay [1] was more than 15 µM; in assay [9] it was more than 15 µM; in assay [10], more than 15 µM; in assay [3] it was less than 5 µM; in assay [4] it was less than 5 µM; in [8], 5 to 15 µM. In assay [11], the IC50 was more than 15 µM. Besides, the inhibition at 5 µM in assay [3] is 85.7%. Also, in assay [3], the inhibition at 15 µM worked out at 91.8%.

For the compound `CC(C)C[C@H](NC(=O)[C@H](CCC(N)=O)NC(=O)[C@@H](NC(=O)[C@H](CS)NC(=O)[C@H](Cc1ccccc1)NC(=O)[C@H](CO)NC(=O)CNC(=O)[C@H](Cc1ccc(O)cc1)NC(=O)[C@H](CCC(N)=O)NC(=O)[C@@H](N)CC(C)C)[C@@H](C)O)C(=O)O` [Epitope Y88] (H-LQYGSFCTQL-OH; N-terminus and C-terminus assumed), the IC50 was more than 15 µM in [1], more than 15 µM in [9], more than 15 µM in assay [4] and 5 to 15 µM in assay [8].

With `CC[C@H](C)[C@H](NC(=O)[C@@H]1CCCN1C(=O)[C@@H]1CCCN1C(=O)[C@@H](NC(=O)[C@H](CCCCN)NC(=O)[C@H](Cc1ccc(O)cc1)NC(=O)[C@@H](NC(=O)[C@H](CCC(N)=O)NC(=O)[C@@H](N)CCCCN)[C@@H](C)CC)[C@@H](C)O)C(=O)O` [Epitope Y82] (H-KQIYKTPPI-OH; N-terminus and C-terminus assumed), the IC50 is 5 to 15 µM in assay [1]; more than 15 µM in [9]; more than 15 µM in assay [10]; more than 15 µM in assay [4]; less than 5 µM in assay [8].

In the case of `CC[C@H](C)[C@H](NC(=O)[C@@H](NC(=O)[C@H](CC(N)=O)NC(=O)[C@H](CCCNC(=N)N)NC(=O)[C@H](CCCCN)NC(=O)[C@@H](NC(=O)[C@H](Cc1ccc(O)cc1)NC(=O)[C@H](C)NC(=O)[C@@H](N)Cc1ccccc1)[C@@H](C)O)C(C)C)C(=O)O` [Epitope Y276] (H-FAYTKRNVI-OH; N-terminus and C-terminus assumed), the IC50 in assay [9] was 5 to 15 µM; in assay [10], more than 15 µM; in assay [4] it was more than 15 µM; in [8] it was more than 15 µM; in assay [11] it was less than 5 µM.

With `CC(C)C[C@H](NC(=O)[C@H](Cc1c[nH]cn1)NC(=O)[C@H](Cc1ccccc1)NC(=O)[C@@H](NC(=O)[C@H](CC(=O)O)NC(=O)[C@H](C)NC(=O)[C@H](Cc1ccc(O)cc1)NC(=O)[C@H](CCC(=O)O)NC(=O)[C@@H](N)CCC(N)=O)C(C)C)C(=O)O` [Epitope Y71] (H-QEYADVFHL-OH; N-terminus and C-terminus assumed), the IC50 was more than 15 µM in assay [1]; more than 15 µM in assay [9]; 5 to 15 µM in assay [4]; 5 to 15 µM in [6]; more than 15 µM in assay [7]; 5 to 15 µM in [8].

Consider `CC[C@H](C)[C@H](NC(=O)[C@H](CC(N)=O)NC(=O)[C@H](CCCCN)NC(=O)[C@H](Cc1ccccc1)NC(=O)[C@@H](NC(=O)[C@@H](N)Cc1ccccc1)C(C)C)C(=O)N[C@@H](CC(=O)O)C(=O)NCC(=O)N[C@@H](Cc1ccc(O)cc1)C(=O)O` [Epitope Y172] (H-FVFKNIDGY-OH; N-terminus and C-terminus assumed), for which the IC50 in assay [1] is less than 5 µM; in [2], more than 15 µM; in [9], more than 15 µM; in assay [10] it was 5 to 15 µM; in assay [3], more than 15 µM; in [4] it was less than 5 µM. Further, the IC50 was more than 15 µM in assay [5]; more than 15 µM in [6]; more than 15 µM in assay [7]; 5 to 15 µM in assay [8]; more than 15 µM in assay [11].
